Source: patent US20170095512A1, “METHODS OF INDUCING MYELINATION AND MATURATION OF OLIGODENDROCYTES” (KADIMASTEM LTD., priority 2014, published 2017)
“Also recorded” adds a separate entry of the source.

What was measured:
[1] = system: glial progenitor cells derived from human ES cells (Olig2 positive cells); assay: hOPC differentiation assay, Olig2 positive cells (immunostaining, high content screening); assay type: cell-based
Experimental: In order to initiate differentiation 20,000 GPCs were seeded in each well of Matrigel coated plates of 96 wells, or on PolyD-Lysine/laminin (PDL/lam)-coated 96 well plates. Cells were grown in GM media for two to three days. Then GM was replaced by differentiation medium without growth factors, (DMEM/F12, 1% B27, 0.5% N2, Vitamin C (Sigma, 50 ug/ml). Differentiation medium was supplemented with the following tested compounds: […] All media were replaced every other day. The oligodendrocyte lineage cells were characterized by the expression of a transcription factor olig2. The rabbit polyclonal AB anti olig2 (Millipore cat AB9610) was added to PFA fixed cells. […] The fixed cells were washed three times in blocking solution, olig2 diluted 1/500, in blocking solution, was added for 1 hour. The fixed cells were washed with PBS 3 times and goat anti rabbit Alexa Fluor 568 1/500 in PBS was added for 45 minutes. The fixed cells were washed three times. ArrayScan VTI HCS reader system (Cellomis, Thermo-scientific) was used for scanning at least 20 fields for each tested well under 10× objective in both assays (differentiation and myelination). Cellomics Neural profiling bio-application was used for processing and analyzing the images. For differentiation assay, the following parameters were tested: number and percentage of O4+ cells, number of processes, processes length and number of branching points. For myelination assay, the same morphological parameters were tested and in addition: areas of myelinated axons in pixels (MBP&NF overlap area) and Number of myelinated regions (MBP&NF overlap count) were also analyzed. Modifications in the Neuro-profiling bio-application were conducted for this specific purpose. T-test analysis was used to compare between treatments. The 4-parameter Hill-Slope curve fittings were generated by GraphPad Prism software using least squares fitting method and EC50 values were calculated. […] The cells at passage five were cultured for three days with GM on 96 well plates and after fixation, cells were reacted with anti-olig2 Ab, and olig2 positive cells and nuclei were scanned in the Thermo Scientific™ ArrayScan™ XTI High Content Analysis (HCA) Reader and counted with the neural profiling program. On the other hand the cells surface antigens O4 and PDGFRa were detected on dissociated cells after fixation and reaction with O4 Ab conjugated to APC, anti PDGFRa PE, as well as A2B5 PE all obtained from BD. Flow cytometry was conducted in BD FACS Canto II. […] Time points used for analysis are 21, 28, 35 and 42 days of differentiation, for each time point 20 fields were analyzed. […] In this experiment, cells at passage 4 were pretreated in differentiation medium with Noggin for 14 days, and split before seeding on 96 well plates.

[2] = system: human oligodendrocytes precursor cells (hOPC); assay: Microarray gene expression analysis of LDN treated hOPC; assay type: cell-based; details: 125 nM, 35 days
Experimental: LDN (125 nM) was supplemented to human oligodendrocytes precursor cells (hOPC) for 35 days. Microarray analysis was performed on duplicate of LDN treated and Non-treated (NT) hOPC.

For `c1ccc2c(-c3cnn4cc(-c5ccc(N6CCNCC6)cc5)cnc34)ccnc2c1` [LDN-193189], the “Olig2+ cells number / differentiation (summary statement)” value [1] was “increased the number of O4+ and Olig2+ cells; also recorded: stimulates the formation of olig2 positive cells”, the EC50 ([1]; 21 days, differentiation medium without noggin, with or without PDGF (20 ng/ml), read-out: EC50 (percentage of olig2 positive cells)) was ~0.03 µM and the “number / percentage of Olig2+ cells (hOPC commitment)” value ([1]; day 21, Noggin 50 ng/ml + PDGF 20 ng/ml, Dorsomorphin 2 μM, LDN-193189 125 nM) was “increased the number of Olig2+”. For the same compound, the “conversion of neural stem cells to Olig2 positive cells” value ([1]; days 21, 28, 35, 42, noggin 100 ng/ml, LDN-193189 62.5 nM and 125 nM) was “stimulate the conversion of neural stem cells to Olig2 positive cells”, the “LDN expression value: ADAMTS5, cluster 16924620” value [2] was 4.59 and the “LDN expression value: AN04, cluster 16755712” value [2] was 3.1. The “LDN expression value: ARHGAP28, cluster 16850724” value [2] was 3.09, the “LDN expression value: ASPN, cluster 17095887” value [2] was 9.23 and the “LDN expression value: ATP8B1, cluster 16855510” value [2] was 3.98. The “LDN expression value: BCAS1, cluster 16920475” value [2] was 6.52, the “LDN expression value: BMP8B, cluster 16685729” value [2] was 4.53 and the “LDN expression value: C1QTNF9B-AS1, cluster 16773183” value [2] was 3.69. The “LDN expression value: CACNG5, cluster 16837160” value [2] was 5.71, the “LDN expression value: CATSPER2P1, cluster 16808340” value [2] was 5.12 and the “LDN expression value: CGB2, cluster 16863963” value [2] was 4.05. For the same compound, the “LDN expression value: CKMT1A, cluster 16800268” value [2] was 4.08, the “LDN expression value: CLDN25, cluster 16731401” value [2] was 4.26 and the “LDN expression value: CLVS2, cluster 17012223” value [2] was 4.53. For the same compound, the “LDN expression value: COL12A1, cluster 17020846” value [2] was 8.23, the “LDN expression value: CYTL1, cluster 16973934” value [2] was 5.81 and the “LDN expression value: DLX2, cluster 16905108” value [2] was 6.25. For the same compound, the “LDN expression value: DLX6-AS1, cluster 17060039” value [2] was 5.13, the “LDN expression value: EFTUD1P1, cluster 16804141” value [2] was 3.87 and the “LDN expression value: FLJ16124, cluster 16880774” value [2] was 3.13. For the same compound, the “LDN expression value: GABRQ, cluster 17107855” value [2] was 6.76, the “LDN expression value: GAD2, cluster 16703382” value [2] was 3.71 and the “LDN expression value: GFRA1, cluster 16718670” value [2] was 7.52. The “LDN expression value: GJB2, cluster 16777185” value [2] was 4.88, the “LDN expression value: GPR126, cluster 17013126” value [2] was 5.42 and the “LDN expression value: GRIK1, cluster 16924761” value [2] was 7.51. The “LDN expression value: GSX2, cluster 16966801” value [2] was 4.62, the “LDN expression value: HCG24, cluster 17028423” value [2] was 2.38 and the “LDN expression value: ID1, cluster 16912362” value [2] was 4.47. For the same compound, the “LDN expression value: ID3, cluster 16683377” value [2] was 5.5, the “LDN expression value: IGLV3-9, cluster 16927827” value [2] was 5.34 and the “LDN expression value: IL17RB, cluster 16941871” value [2] was 4.55. The “LDN expression value: INSM1, cluster 16911917” value [2] was 6.13, the “LDN expression value: KIAA1199, cluster 16803754” value [2] was 4.07 and the “LDN expression value: LOC284632, cluster 16660753” value [2] was 3.33. For the same compound, the “LDN expression value: LOC100286922, cluster 16909695” value [2] was 3.3, the “LDN expression value: LPAR3, cluster 16688992” value [2] was 5.8 and the “LDN expression value: LRRC7, cluster 16665976” value [2] was 3.48. The “LDN expression value: LRRTM1, cluster 16899533” value [2] was 3.97, the “LDN expression value: MIR1226, cluster 16940440” value [2] was 4.98 and the “LDN expression value: MIR1321, cluster 17105179” value [2] was 3.47. The “LDN expression value: MIR3160-1, cluster 16724356” value [2] was 4.18, the “LDN expression value: MSLNL, cluster 16822561” value [2] was 5.67 and the “LDN expression value: NUDT9P1, cluster 16716499” value [2] was 3.56. The “LDN expression value: OR2V1, cluster 17004061” value [2] was 3.13, the “LDN expression value: OTTHUMG00000156244, cluster 17056553” value [2] was 4.16 and the “LDN expression value: OTTHUMG00000176466, cluster 16826102” value [2] was 5.02. For the same compound, the “LDN expression value: PAPPA2, cluster 16674151” value [2] was 4.24, the “LDN expression value: PDE5A, cluster 16979339” value [2] was 4.13 and the “LDN expression value: PPP1R17, cluster 17044956” value [2] was 5.13. The “LDN expression value: RNA5SP482, cluster 16912470” value [2] was 2.92, the “LDN expression value: SCARNA1, cluster 16661495” value [2] was 2.28 and the “LDN expression value: SCGN, cluster 17005473” value [2] was 6.7. For the same compound, the “LDN expression value: SERPINA3, cluster 16787902” value [2] was 5.07, the “LDN expression value: SLC1A2, cluster 16737325” value [2] was 6.08 and the “LDN expression value: SLC1A4, cluster 16880712” value [2] was 8.96. The “LDN expression value: SLC1A5, cluster 16873632” value [2] was 6.29, the “LDN expression value: SNORA70B, cluster 16898108” value [2] was 2.38 and the “LDN expression value: SNORD1B, cluster 16838101” value [2] was 3.01. For the same compound, the “LDN expression value: SNORD37, cluster 16867229” value [2] was 3.63, the “LDN expression value: SNORD88B, cluster 16874641” value [2] was 5.05 and the “LDN expression value: SOX10, cluster 16934881” value [2] was 6.63. For the same compound, the “LDN expression value: SP8, cluster 17055689” value [2] was 4.65, the “LDN expression value: ST18, cluster 17077073” value [2] was 2.85 and the “LDN expression value: TEX35, cluster 16674240” value [2] was 3.05. The “LDN expression value: TNFAIP6, cluster 16886491” value [2] was 5.47, the “LDN expression value: TNR, cluster 16696624” value [2] was 8.09 and the “LDN expression value: TRAJ46, cluster 16782032” value [2] was 3.99. For the same compound, the “LDN expression value: TRIM65, cluster 16848961” value [2] was 5.41, the “LDN expression value: TTK, cluster 17010552” value [2] was 5.68 and the “LDN expression value: UGT8, cluster 16970001” value [2] was 8.99. For the same compound, the “LDN expression value: WIF1, cluster 16767081” value [2] was 5.73, the “LDN expression value: ZIC2, cluster 16776103” value [2] was 4.76 and the “LDN expression value: cluster 16662690” value [2] was 3.02. For the same compound, the “LDN expression value: cluster 16689704” value [2] was 2.34, the “LDN expression value: cluster 16697040” value [2] was 3.18 and the “LDN expression value: cluster 16697217” value [2] was 3.02. The “LDN expression value: cluster 16703561” value [2] was 5.3, the “LDN expression value: cluster 16707466” value [2] was 3.92 and the “LDN expression value: cluster 16740950” value [2] was 5.53. The “LDN expression value: cluster 16742286” value [2] was 4.35, the “LDN expression value: cluster 16758848” value [2] was 4.29 and the “LDN expression value: cluster 16766940” value [2] was 6.76. For the same compound, the “LDN expression value: cluster 16781352” value [2] was 4.74, the “LDN expression value: cluster 16797929” value [2] was 5.86 and the “LDN expression value: cluster 16834632” value [2] was 3.21. For the same compound, the “LDN expression value: cluster 16846798” value [2] was 5.15, the “LDN expression value: cluster 16906256” value [2] was 3.32 and the “LDN expression value: cluster 16926511” value [2] was 5.66. For the same compound, the “LDN expression value: cluster 16928859” value [2] was 2.2, the “LDN expression value: cluster 16985206” value [2] was 3.41 and the “LDN expression value: cluster 16997369” value [2] was 4.3. For the same compound, the “LDN expression value: cluster 17012233” value [2] was 3.53, the “LDN expression value: cluster 17042403” value [2] was 7.47 and the “LDN expression value: cluster 17056789” value [2] was 6.64. For the same compound, the “LDN expression value: cluster 17063571” value [2] was 2.81, the “LDN expression value: cluster 17112263” value [2] was 2.9 and the “LDN expression value: cluster 17117590” value [2] was 5.68. For the same compound, the “LDN expression value: cluster 17118266” value [2] was 2.43, the “LDN expression value: cluster 17118303” value [2] was 3.61 and the “LDN expression value: cluster 17124590” value [2] was 2.62.
